“And” between values parts separate entries of the source, which are not always exact repeats. Identical values can stand only once.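 Tested at 5 concentrations; 48 h exposure; 96-well plates; endpoints linearly interpolated, else capped at highest concentration. The concentration for 50% growth inhibition is given as GI50. TGI: concentration producing complete growth inhibition.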
Assays:
Assay in all cases: NCI tumour cell line growth inhibition, 48 h
SNB-75 CNS = tested on: SNB-75 CNS
EKVX NSCLC = tested on: EKVX NSCLC
UACC-257 melanoma = tested on: UACC-257 melanoma
MDA-MB-435 = tested on: MDA-MB-435
NCI-H226 lung = tested on: NCI-H226 lung
SK-MEL-28 melanoma = tested on: SK-MEL-28 melanoma
OVCAR-8 ovarian = tested on: OVCAR-8 ovarian
KM12 colon = tested on: KM12 colon
OVCAR-5 ovarian = tested on: OVCAR-5 ovarian
HCT-116 colon = tested on: HCT-116 colon

| SMILES | GI50 (SNB-75 CNS) [µM] | TGI (SNB-75 CNS) [µM] | GI50 (EKVX NSCLC) [µM] | TGI (EKVX NSCLC) | GI50 (UACC-257 melanoma) [µM] | TGI (UACC-257 melanoma) [µM] | GI50 (MDA-MB-435) [µM] | TGI (MDA-MB-435) [µM] | GI50 (NCI-H226 lung) [µM] | TGI (NCI-H226 lung) [µM] | GI50 (SK-MEL-28 melanoma) [µM] | TGI (SK-MEL-28 melanoma) | GI50 (OVCAR-8 ovarian) [µM] | TGI (OVCAR-8 ovarian) [µM] | GI50 (KM12 colon) [µM] | TGI (KM12 colon) [µM] | GI50 (OVCAR-5 ovarian) [µM] | TGI (OVCAR-5 ovarian) [µM] | GI50 (HCT-116 colon) [µM] | TGI (HCT-116 colon) |
| --- | --- | --- | --- | --- | --- | --- | --- | --- | --- | --- | --- | --- | --- | --- | --- | --- | --- | --- | --- | --- |
| CC/C(Cc1ccccc1)=C(/c1ccc(O)cc1)c1ccc(OCCN2CCCC2)cc1 | 1.31 | 2.98 | 1.44 | 2.89 µM | 2.14 | 3.89 | 1.67 | 3.23 | 1.77 | 3.58 | 1.72 | 3.42 µM | 2.39 | 5.39 | 1.94 | 3.74 | 1.86 | 3.93 | 1.83 | 3.3 µM |
| Cc1cccc(Nc2cc(Cl)nc(SCC(=O)O)n2)c1C | – | > 100 | – | > 100 µM | – | > 100 | – | > 100 | – | > 100 | – | > 100 µM | – | > 100 | – | > 100 | – | > 100 | – | > 100 µM |
| CNCCCNc1c2ccccc2nc2cccc([N+](=O)[O-])c12 | – | 0.0142 | – | 0.0226 µM and 0.0389 µM | – | 0.0495 | – | 0.00324 | – | 0.0521 | – | 0.0279 µM and 0.0138 µM | – | 0.0205 | – | 0.0677 | – | 0.022 | – | 0.017 µM and 0.0108 µM |
| COc1ccc2nc3cccc([N+](=O)[O-])c3c(NCCNCCN(C)C)c2c1 | 0.158 | 0.386 | 0.261 | 1.43 µM | 0.24 | 0.604 | 0.111 | 0.248 | 0.219 | 0.629 | 0.62 | 3.09 µM | 0.044 | 0.277 | 0.142 | 0.414 | 0.0375 | 0.467 | 0.25 | 12 µM |
| COc1cc(NC(C)CCCNC(C)C)c2ncccc2c1OC (centres undefined) | 20.5 | > 100 | 36.4 | > 100 µM | > 100 | > 100 | 54.6 | > 100 | > 100 | > 100 | > 100 | > 100 µM | > 100 | > 100 | > 100 | > 100 | > 100 | > 100 | 27.8 | > 100 µM |
| COc1ccc2[nH]c(C(=O)OCc3ccc4cccc(O)c4n3)cc2c1 | 1.06 | 2.3 | 1.51 | 2.89 µM | 2.02 | 5.68 | 1.52 | 3.13 | 1.4 | 3.14 | 1.61 | 3 µM | 1.38 | 4.04 | 1.94 | 3.9 | 1.45 | 2.96 | 0.39 | 1.85 µM |
| CCc1nn2ncccc2c1-c1ccnc(NC2CC2)n1 | > 25 | > 25 | > 25 | > 25 µM | > 25 | > 25 | > 25 | > 25 | 20.2 | > 25 | > 25 | > 25 µM | > 25 | > 25 | > 25 | > 25 | > 25 | > 25 | > 25 | > 25 µM |
| CCN(CC)c1ccc(/C=N/NC(=O)CSc2nc3ccccc3c(=O)n2Cc2ccc(S(N)(=O)=O)cc2)c(O)c1 | 2.86 | > 100 | 0.65 | > 100 µM | 3.03 | > 100 | 2.07 | > 100 | 0.895 | > 100 | 1.62 | > 100 µM | 0.932 | > 100 | 0.569 | > 100 | 2.09 | > 100 | 0.363 | > 100 µM |
| CCn1c(=N)sc2nc3ccccc3n2c1=O | – | > 100 | – | > 100 µM | – | > 100 | – | > 100 | – | > 100 | – | > 100 µM | – | > 100 | – | > 100 | – | > 100 | – | > 100 µM |
| S=C(CSc1ccccc1)Nc1cccc2ccccc12 | – | > 100 | – | > 100 µM | – | 68.3 | – | > 100 | – | > 100 | – | > 100 µM | – | > 100 | – | > 100 | – | > 100 | – | > 100 µM |
| O=C(O)Cn1ccc2ccccc21 | > 100 | > 100 | > 100 | > 100 µM | > 100 | > 100 | > 100 | > 100 | > 100 | > 100 | > 100 | > 100 µM | > 100 | > 100 | > 100 | > 100 | > 100 | > 100 | > 100 | > 100 µM |
| COc1ccc2c(c1)O/C(=C\c1cccc(OCC(=O)Nc3nc(C)c(C)s3)c1)C2=O | 0.862 | 6.51 | 8.42 | > 54.1 µM | > 100 | > 100 | 7.29 | > 100 | > 53 | > 100 | 20.9 | > 100 µM | 4.7 | > 100 | 1.02 | – | 3.79 | > 26.3 | 5.53 | > 53.3 µM |
| NCCOc1ncccc1/C=C1\c2ccccc2-c2ccc([N+](=O)[O-])cc21 | 0.0488 | 0.437 | 0.116 | 0.474 µM | 0.209 | 1.39 | 0.161 | 0.362 | 0.11 | 0.366 | 0.241 | 1.06 µM | 0.0686 | 0.705 | 0.11 | 0.546 | 0.211 | 0.68 | 0.0455 | 0.237 µM |
| Cc1nc(Sc2nc3ccc([N+](=O)[O-])cc3s2)sc1C | 2.48 | 12.3 | 11.6 | 24.2 µM | 4.62 | 16.4 | 1.78 | 11.1 | 1.07 | 2.84 | 1.77 | 4.76 µM | 1.79 | 7.12 | 3.89 | 14.6 | 2.84 | 11.8 | 1.06 | 2.49 µM |
| Cc1c(C)c2c(c(C)c1OCC(=O)O)CC[C@@](C)(CCC[C@@H](C)CCC[C@@H](C)CCCC(C)C)O2 | 69.9 | 141 | 64.2 | 148 µM | 77.2 | 183 | 72.6 | 142 | 89 | 244 | 62.6 | 129 µM | 59.4 | 152 | 63.3 | 173 | 86.3 | 155 | 33.2 | 108 µM |
| O=C(Nc1ccc2c(c1)OCCO2)C(=O)c1c[nH]c2ccccc12 | 1.33 | 5.96 | 5.37 | > 100 µM | > 23.5 | > 100 | 0.166 | 0.531 | 5.03 | 61.3 | 5.6 | > 100 µM | 2.37 | 35.7 | 0.469 | > 100 | 3.47 | > 100 | 1.25 | > 20.5 µM |
| COc1ccc(-c2nn3ncccc3c2-c2ccnc(Nc3ccc4c(c3)OCCO4)n2)cc1 | > 13.9 | > 25 | 9.61 | > 25 µM | 9.07 | > 25 | 12.5 | > 25 | 5.51 | > 25 | 16.9 | > 25 µM | 7.3 | > 25 | 5.99 | > 25 | 5.72 | > 25 | 8.16 | > 25 µM |
| Cc1noc(C)c1-c1cnc2c(-c3ccc(C(=O)O)cc3)cn([C@@H](C)c3ccccn3)c2c1 | 0.0376 | 2.47 | 0.58 | > 100 µM | 1.62 | > 100 | 0.603 | > 100 | 5.02 | > 46.6 | 5.44 | > 100 µM | 2.89 | > 100 | 2.73 | > 100 | 4.22 | > 100 | 1.14 | > 100 µM |
| C[C@H](NC(=O)c1c(C(F)F)nn(C)c1Oc1cccc(C(F)(F)F)c1)c1ccc(C(=O)O)cc1 | > 100 | > 100 | > 100 | > 100 µM | > 100 | > 100 | > 100 | > 100 | > 100 | > 100 | > 100 | > 100 µM | > 100 | > 100 | > 100 | > 100 | > 100 | > 100 | > 100 | > 100 µM |

Source: PubChem BioAssay (NCI)
